In patent US5585355A, “Method for increasing blood-ocular barrier permeability with permeabilizer peptides” (Alkermes, Inc., priority 1994, dated 1996):

Tests used:
Type in all cases: in vivo, guinea pig
[1] = Effect of A-7 on physiological functions; settings: A-7 10 μg/kg body weight; within first minute of infusion
blood-ocular barrier [2] = test: Uptake of [3H]-ganciclovir into the eye after arterial infusion of A-7 (VEP); settings: for KIN of [3H]-ganciclovir: 0 min to 3.0 min; for KIN for ganciclovir, times higher in the presence of A-7: 0 to 3.0 min
Procedure: Animals were anaesthetized with 6 mg/kg xylazine (Rompun®, Mobay Corp., Shawnee, Kans.) and 30 mg/kg ketamine (Vetacet®, Abeco Co., Inc., Fort Dodge, Iowa) before surgically exposing the neck vessels. The vascular eye perfusion (VEP) technique used here and previously described by Zlokovic et al. (1992, Exp. Eye Res., 54:471) allows for the study of uptake of agents in to the eye while protecting the eye from systemic metabolic changes. The technique is briefly summarized here. A fine polyethylene catheter connected to the extracorporeal perfusion system by silicon tubings was inserted into the right common carotid artery. Immediately after the start of the perfusion, the contralateral carotid artery was ligated and both jugular veins cut to allow free drainage of the perfusate.
The perfusion medium consisted of 20% washed sheep red blood cells (RBC) suspended in mock plasma of the following composition (in mM): 123 NaCl, 4 KCl, 2.5 CaCl2.H2 O, 25 NaHCO3, 1.2 KH2 PO4, 1.8 MgCl2.6H2 O and 5.5 D-glucose. The perfusion medium was gassed with 96% O2 and 4% CO2 and warmed to 37.6° C., and was pumped from a reservoir through a water bath using a Rainin Rabbit peristaltic pump (Rainin Instruments, Woburn, Mass.). All tubing was low gas permeable silicon, and all metal was medical grade stainless steel. The temperature and perfusion pressure were continuously recorded, and the acid-base status frequently monitored. Perfusion pressure was kept slightly above the animal's blood pressure to eliminate any possible ingress from the systemic circulation.
Isotopically labeled [^14 C]-sucrose was introduced into the perfusion circuit after the 5 minute infusion at a rate of 0.4 to 0.6 μCi/ml/min, over periods ranging from 1.5 min to 4.5 min. In all experiments, the perfusion was terminated by severing the right common carotid artery and decapitating the animal.
As large a sample as possible (30-40 μl) of the aqueous humor was removed with a 0.5 cc U-100 insulin syringe using 28 G 1/2 microfine IV needle (no dead-space), immediately after the perfusion was terminated. The eyes were enucleated and the lenses rapidly excised via a lateral approach 1.5 mm posteriorly to the limbus. The lenses were blotted on filter paper to remove any adhering aqueous humor and to avoid epithelial contamination by aqueous radioactivity. Corneas were dissected circumferentially about 0.5 mm anteriorly to the limbus. After removal of the anterior segment of the eye, the vitreous body was dissected from the retinal surface. Retinas were scooped from the lying epithelium. All tissues were blotted after dissection to minimize contamination by adjacent tissue layers and/or fluids. Samples of plasma, aqueous humor, lens, cornea, retina and posterior vitreous were treated with 2 ml Beckman Tissue Solubilizer (BTS)-450, and 16 ml of scintillant (Beckman Ready Organic, Fullerton, Calif.). Radioactivity was determined in a Beckman LS-7500 liquid scintillation spectrometer.
The methodology of these experiments is similar to that of Example 1 described above. […] The ocular compartments were dissected as described above and analyzed for uptake of [^3 H]-ganciclovir.

blood-ocular barrier [3] = test: Uptake of [3H]-ganciclovir into retina and lens following intravenous administration of A-7; settings: for Uptake of [3H]-ganciclovir, % of plasma concentration (W/W): five minute intravenous administration of A-7
Procedure: The methodology of these experiments is similar to that of Example 1 except for the following modifications. In this case, [^3 H]-ganciclovir (22 Ci mmol^-1, Moravek Brea, Calif.) was injected into the right jugular vein instead of the common carotid artery. […] The lenses and retinas were removed as described in Example 1.

## Arginine-Proline-Hydroxyproline-Glycine-Thienylalanine-Serine-Proline-4-Me-Tyrosine-(CH2 NH)Arginine [A-7]
[1]
  Blood Pressure: 100 mm Hg
  Body Weight: 285 g
  Heart Rate: Unmeasur-
  Respirations/Minute: 58
blood-ocular barrier [2]; aqueous, 1.5 min, arterial infusion of A-7
  Uptake of [3H]-ganciclovir, % of plasma concentration (W/W): 0.46 ± 0.1 % of Plasma Concentration (W/W
blood-ocular barrier [2]; aqueous, 3.0 min, arterial infusion of A-7
  Uptake of [3H]-ganciclovir, % of plasma concentration (W/W): 0.51 ± 0.21 % of Plasma Concentration (W/W
blood-ocular barrier [2]; aqueous, 4.5 min, arterial infusion of A-7
  Uptake of [3H]-ganciclovir, % of plasma concentration (W/W): 0.55 ± 1.0 % of Plasma Concentration (W/W
blood-ocular barrier [2]; compartments other than retina and lens, within the measured time periods
  Ganciclovir uptake into other compartments: did not substantially increase
blood-ocular barrier [2]; cornea
  KIN of [3H]-ganciclovir: 1.21 µL/min/g
blood-ocular barrier [2]; cornea, 1.5 min, arterial infusion of A-7
  Uptake of [3H]-ganciclovir, % of plasma concentration (W/W): 1.16 ± 0.53 % of Plasma Concentration (W/W
blood-ocular barrier [2]; cornea, 3.0 min, arterial infusion of A-7
  Uptake of [3H]-ganciclovir, % of plasma concentration (W/W): 2.98 ± 0.33 % of Plasma Concentration (W/W
blood-ocular barrier [2]; cornea, 4.5 min, arterial infusion of A-7
  Uptake of [3H]-ganciclovir, % of plasma concentration (W/W): 2.92 ± 0.46 % of Plasma Concentration (W/W
blood-ocular barrier [2]; lens
  KIN of [3H]-ganciclovir: 40.3 ± 5.6 µL/min/g
  KIN for ganciclovir, times higher in the presence of A-7: 1.3 times
blood-ocular barrier [2]; lens, 1.5 min, arterial infusion of A-7
  Uptake of [3H]-ganciclovir, % of plasma concentration (W/W): 7.89 ± 0.52 % of Plasma Concentration (W/W
blood-ocular barrier [2]; lens, 3.0 min, arterial infusion of A-7
  Uptake of [3H]-ganciclovir, % of plasma concentration (W/W): 11.86 ± 1.42 % of Plasma Concentration (W/W
blood-ocular barrier [2]; lens, 4.5 min, arterial infusion of A-7
  Uptake of [3H]-ganciclovir, % of plasma concentration (W/W): 13.37 ± 1.06 % of Plasma Concentration (W/W
blood-ocular barrier [2]; lens, from 1.5 to 4.5 minutes of VEP
  Increase in uptake of ganciclovir into the lens: 1.5-2 fold
blood-ocular barrier [2]; retina
  KIN of [3H]-ganciclovir: 21.2 ± 1.5 µL/min/g
  KIN for ganciclovir, times higher in the presence of A-7: 2.6 times
blood-ocular barrier [2]; retina, 1.5 min, after 5 min arterial infusion of A-7
  Uptake of [3H]-ganciclovir, % of plasma concentration (W/W): 3.96 ± 0.68 % of Plasma Concentration (W/W
blood-ocular barrier [2]; retina, 3.0 min, after 5 min arterial infusion of A-7
  Uptake of [3H]-ganciclovir, % of plasma concentration (W/W): 6.56 ± 0.79 % of Plasma Concentration (W/W
blood-ocular barrier [2]; retina, 4.5 min, after 5 min arterial infusion of A-7
  Uptake of [3H]-ganciclovir, % of plasma concentration (W/W): 7.42 ± 1.14 % of Plasma Concentration (W/W
blood-ocular barrier [2]; retina, from 1.5 to 4.5 minutes of VEP
  Increase of retinal uptake of ganciclovir compared to vehicle control: two-fold
blood-ocular barrier [2]; vitreous
  KIN of [3H]-ganciclovir: 0.47 µL/min/g
blood-ocular barrier [2]; vitreous, 1.5 min, arterial infusion of A-7
  Uptake of [3H]-ganciclovir, % of plasma concentration (W/W): 0.02 ± 0.00 % of Plasma Concentration (W/W
blood-ocular barrier [2]; vitreous, 3.0 min, arterial infusion of A-7
  Uptake of [3H]-ganciclovir, % of plasma concentration (W/W): 0.04 ± 0.03 % of Plasma Concentration (W/W
blood-ocular barrier [2]; vitreous, 4.5 min, arterial infusion of A-7
  Uptake of [3H]-ganciclovir, % of plasma concentration (W/W): 0.11 ± 0.04 % of Plasma Concentration (W/W
blood-ocular barrier [3]; lens, 1.5 min
  Uptake of [3H]-ganciclovir, % of plasma concentration (W/W): 5.46 ± 1.08 % of Plasma Concentration (W/W
blood-ocular barrier [3]; lens, 4.5 min
  Uptake of [3H]-ganciclovir, % of plasma concentration (W/W): 10.01 ± 1.37 % of Plasma Concentration (W/W
blood-ocular barrier [3]; retina, 1.5 min
  Uptake of [3H]-ganciclovir, % of plasma concentration (W/W): 3.94 ± 0.36 % of Plasma Concentration (W/W
blood-ocular barrier [3]; retina, 4.5 min
  Uptake of [3H]-ganciclovir, % of plasma concentration (W/W): 8.45 ± 1.00 % of Plasma Concentration (W/W
blood-ocular barrier [3]; retina, intravenous A-7, p=0.001
  Increase of retinal uptake of [3H]-ganciclovir above vehicle treated controls: more than 2 fold
